Laboratory results reported in ChEMBL document CHEMBL1201862, “PubChem BioAssay data set” (2004).
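Test compounds were applied to cells in 96-well plates for 48 hours at 5 doses. GI50 = concentration required for 50% inhibition of growth.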 Active and inactive are the calls of the source. No stated cut-off is given here; in the data, active = GI50 up to about 1.1 µM and inactive = higher.

Assays:
Assay in all cases: NCI anticancer screen, dose series, 48 h
[1] = system: U-251
[2] = system: M14
[3] = system: SK-MEL-28
[4] = system: SR
[5] = system: OVCAR-4
[6] = system: RPMI-8226
[7] = system: SF-295
[8] = system: HOP-62
[9] = system: IGROV-1
[10] = system: OVCAR-8
[11] = system: HCT-116
[12] = system: SK-OV-3
[13] = system: CCRF-CEM
[14] = system: HCC 2998
[15] = system: HCT-15
[16] = system: K562
[17] = system: UACC-257
[18] = system: RXF 393
[19] = system: EKVX
[20] = system: TK-10

Row | SMILES | GI50 [1] | GI50 [2] | GI50 [3] | GI50 [4] | GI50 [5] | GI50 [6] | GI50 [7] | GI50 [8] | GI50 [9] | GI50 [10] | GI50 [11] | GI50 [12] | GI50 [13] | GI50 [14] | GI50 [15] [µM] | GI50 [16] | GI50 [17] | GI50 [18] | GI50 [19] | GI50 [20]
1 | Cc1cc(NS(=O)(=O)c2ccc(NC(NC(=O)OC(C)C)(C(F)(F)F)C(F)(F)F)cc2)nc(C)n1 | > 100 µM (inactive) | > 100 µM (inactive) | > 100 µM (inactive) | > 100 µM (inactive) | > 100 µM (inactive) | > 100 µM (inactive) | > 100 µM (inactive) | > 100 µM (inactive) | > 100 µM (inactive) | > 100 µM (inactive) | > 100 µM (inactive) | > 100 µM (inactive) | > 100 µM (inactive) | > 100 µM (inactive) | > 100 | > 100 µM (inactive) | > 100 µM (inactive) | > 100 µM (inactive) | > 100 µM (inactive) | > 100 µM (inactive)
2 | C[C@]12CC[C@H]3[C@@H](CC=C4C[C@@H](N5CCCC5)CC[C@@]43C)[C@@H]1C[C@H](N1CCCCC1)[C@@H]2O | > 100 µM (inactive) | 20.3 µM (inactive) | 45.3 µM (inactive) | 11.4 µM (inactive) | > 100 µM (inactive) | 26.8 µM (inactive) | > 100 µM (inactive) | > 100 µM (inactive) | > 100 µM (inactive) | > 100 µM (inactive) | 91.4 µM (inactive) | > 100 µM (inactive) | > 100 µM (inactive) | 31.6 µM (inactive) | 33.8 | 16.9 µM (inactive) | 23.3 µM (inactive) | > 100 µM (inactive) | > 100 µM (inactive) | > 100 µM (inactive)
3 | CS(=O)(=O)c1nc(-c2cc3c(c(S(C)(=O)=O)n2)CCCC3)cc2c1CCCC2 | > 55.3 µM (inactive) | > 100 µM (inactive) | > 100 µM (inactive) | > 100 µM (inactive) | > 100 µM (inactive) | > 100 µM (inactive) | 33.6 µM (inactive) | 21 µM (inactive) | > 21.8 µM (inactive) | > 35.4 µM (inactive) | > 100 µM (inactive) | > 35.1 µM (inactive) | > 100 µM (inactive) | > 100 µM (inactive) | > 100 | > 100 µM (inactive) | > 100 µM (inactive) | 26.1 µM (inactive) | > 70.1 µM (inactive) | > 64.6 µM (inactive)
4 | NC(=S)NNC(=O)/C(=C/c1ccc(/C=C(\NC(=O)c2ccccc2)C(=O)NNC(N)=S)cc1)NC(=O)c1ccccc1 | 85.7 µM (inactive) | > 100 µM (inactive) | > 100 µM (inactive) | 26.1 µM (inactive) | 97.5 µM (inactive) | 32.1 µM (inactive) | > 100 µM (inactive) | > 100 µM (inactive) | > 79.3 µM (inactive) | 64 µM (inactive) | 75 µM (inactive) | > 100 µM (inactive) | 34.3 µM (inactive) | > 100 µM (inactive) | > 100 | 19.1 µM (inactive) | > 100 µM (inactive) | > 75 µM (inactive) | > 100 µM (inactive) | > 100 µM (inactive)
5 | CCCCCCCCCCNC(=S)OCCCC | 19.5 µM (inactive) | 23.6 µM (inactive) | 25.8 µM (inactive) | 17.4 µM (inactive) | 34 µM (inactive) | 17.1 µM (inactive) | 45.4 µM (inactive) | 27.2 µM (inactive) | 28.1 µM (inactive) | 33.3 µM (inactive) | 18.3 µM (inactive) | 30 µM (inactive) | 17.1 µM (inactive) | 24.6 µM (inactive) | 19.2 | 18.5 µM (inactive) | 23.4 µM (inactive) | 34.9 µM (inactive) | 25.8 µM (inactive) | 14.7 µM (inactive)
6 | NC(CCC(=O)NC(CSCC1C(=O)Nc2ccccc21)C(=O)NCC(=O)O)C(=O)O (stereo not given) | 7.62 µM (inactive) | 5.21 µM (inactive) | 6.58 µM (inactive) | 0.386 µM (active) | 8.41 µM (inactive) | 2.02 µM (inactive) | 15.5 µM (inactive) | 11.9 µM (inactive) | 5.52 µM (inactive) | 6.15 µM (inactive) | 4.89 µM (inactive) | 21 µM (inactive) | 5.27 µM (inactive) | 5.75 µM (inactive) | 4.72 | 1.6 µM (inactive) | 8.11 µM (inactive) | 0.855 µM (active) | 11.9 µM (inactive) | 7.52 µM (inactive)
7 | CCCC(OCC)(OCC)OCC | > 100 µM (inactive) | > 100 µM (inactive) | > 100 µM (inactive) | > 100 µM (inactive) | > 100 µM (inactive) | > 100 µM (inactive) | > 100 µM (inactive) | > 100 µM (inactive) | > 100 µM (inactive) | > 100 µM (inactive) | 27.5 µM (inactive) | > 100 µM (inactive) | > 100 µM (inactive) | > 100 µM (inactive) | > 100 | > 100 µM (inactive) | > 100 µM (inactive) | > 100 µM (inactive) | > 100 µM (inactive) | > 100 µM (inactive)
8 | CC1=Nc2c(ccc3c2C(=O)c2ccccc2C3=O)NC(c2cccc3c2CCC3)C1 (stereo not given) | > 100 µM (inactive) | > 92 µM (inactive) | > 100 µM (inactive) | 11 µM (inactive) | > 100 µM (inactive) | > 100 µM (inactive) | > 100 µM (inactive) | > 73.8 µM (inactive) | 10.3 µM (inactive) | > 100 µM (inactive) | 66.2 µM (inactive) | > 31 µM (inactive) | 0.612 µM (active) | > 100 µM (inactive) | 18.7 | 21.4 µM (inactive) | > 100 µM (inactive) | > 100 µM (inactive) | > 100 µM (inactive) | > 100 µM (inactive)
9 | C[C@]12C=CC(=O)C=C1CC[C@H]1[C@@H]3C[C@@H](O)[C@](O)(C(=O)CO)[C@@]3(C)C[C@H](O)[C@@]12F [TRIAMCINOLONE] | > 100 µM (inactive) | > 100 µM (inactive) | > 100 µM (inactive) | > 100 µM (inactive) | > 100 µM (inactive) | 11 µM (inactive) | > 100 µM (inactive) | > 100 µM (inactive) | > 100 µM (inactive) | > 100 µM (inactive) | > 100 µM (inactive) | > 100 µM (inactive) | 1.4 µM (inactive) | > 100 µM (inactive) | > 100 | > 100 µM (inactive) | > 100 µM (inactive) | > 100 µM (inactive) | > 100 µM (inactive) | > 100 µM (inactive)
